From US7998681B2, “Diagnosis and therapy of antibody-mediated inflammatory auto-immune disorders” (Los Angeles Biomedical Research Institute at Harbor-UCLA …, priority 2000, dated 2011)

Columns and labels:
[1] = tested on: IL-16 and RANTES; assay: Expression of IL-16 and RANTES (FIG. 4); type: cell-based
From the text: Referring to FIG. 5, these findings on the role of IL-16 and RANTES in the fibroblast/lymphocyte inflammation cascade provide options for therapies for TAO, RA and other antibody-mediated inflammatory auto-immune disorders. The method of the therapeutic aspect of the invention involves inhibiting the activity of the two chemoattractant molecules that are substantial contributors to the inflammation cascade, IL-16 and RANTES. IL-16 inhibitors include, but are not limited to, rapamycin, wortmannin, caspase-3 inhibitor, and anti-IL-16 antibody. RANTES inhibitors include, but are not limited to, SB203580, and anti-RANTES antibody. […] These compounds either block translation of the chemoattractant molecules, prevent release of chemoattractant molecules from the cell after they are translated, or neutralize the chemoattractant molecules' ability to cause lymphocytic chemotaxis after they are released.

[2] = tested on: TAO fibroblasts; assay: PGE2 synthesis in TAO fibroblasts; type: cell-based, human; conditions: FIG. 7A
Method: FIGS. 7A and 7B show the up-regulation of PGE2 synthesis and blockage with SC58125 (a PGHS-2 inhibitor) and dexamethasone (7A) and PGHS-2 expression (7B) in TAO fibroblasts.
Referring to FIGS. 7A and 7B, CD40 ligation in orbital fibroblasts results in the induction of PGHS-2 and leads to the over-production of PGE2. […] CD40 ligation in these cultures results in the intermediate activation of IL-1α gene expression. This induction occurs after 6 h of treatment and is mediated at the pre-translational level. IL-1β is undetectable in orbital fibroblasts and is not induced by CD154. Interrupting the expression, receptor binding or activity of IL-1α attenuates the induction of PGHS-2 provoked by CD40 ligation. It is notable that CD40 is over-expressed by thyroid epithelium in Graves' disease and provokes constitutive PGHS-2 expression. Moreover, functional CD40 is expressed by human thyroid fibroblasts.

[3] = tested on: orbital fibroblasts; assay: Differentiation of orbital fibroblasts into adipocytes; type: cell-based, human; conditions: parent strain, transient exposure; flow analysis
From the text: FIGS. 13A-13D show induction of differentiation of Thy-1^− orbital fibroblasts into adipocytes by the […] ligand rosiglitazone. A control phase contrast of parental strain (B) flow cytometric analysis of parental strain showing absence of adipocytes (C) phase contrast post-differentiation showing adipocyte clusters (D) flow analysis showing 44% adipocyte differentiated.
An under-appreciated feature of the tissue remodeling associated with TAO is the expansion of the fat deposit. In fact, a number of surgical therapeutic strategies are aimed directly at reducing the mass of fat in TAO. These have been variably successful in reducing the mechanical embarrassment imposed by excessive fat volumes in TAO. […] While only a small fraction of orbital fibroblasts undergo differentiation into mature adipocytes, the fraction is invariant with regard to whether the fibroblasts were from a patient with TAO or from normal orbital tissues. While this discovery was of substantial interest to us, we realized that the differentiation of such a small fraction of cells might preclude determining the phenotypic changes accompanying them. However, referring to FIGS. 12A-12D, transient exposure to the PPARγ ligand (rosiglitazone) 45 to 65% of the cells in a parent strain matured to adipocytes showing that orbital fibroblasts express abundant PPARγ. […]

[4] = tested on: IL-16; assay: IL-16 ELISA of medium from treated fibroblasts, GD donors; type: cell-based, human; conditions: TAO orbital fibroblasts; IGF-1 10 nM, TSH high concentrations
From the text: (§1) In addition to its therapeutic aspects, the present invention also relates to a diagnostic method for detecting the presence of antibody-activated fibroblasts in the patient. Applicants believe that several auto immune diseases or disorders are associated with antibody-activated fibroblasts. […] Altered levels of these chemoattractants can be detected in various biological samples in mammals, preferably humans. Levels of IL-16 and/or RANTES may be monitored in a patient, using standard techniques, as an indication of the deleterious aspects of the disease condition. Biological samples, including but not limited to serum, vitreous humor, aqueous humor, synovial fluid, and tissue, will be drawn from the patient using standard techniques. Particularly preferred are serum samples. The measurement of the IL-16 and RANTES levels may be monitored using any method possible to detect the levels of these proteins in biological samples. A preferred method of analysis is by ELISA as described in Sciaky, D. et al., J. Immunol. 164(7):3806-14, 2000. An ELISA specific for IL-16 can be used to assess the levels released by fibroblasts as described previously in Lim, K. G. et al., J. Immunol. 156(7): 2566-70, 1996. An ELISA specific for RANTES can be used according to the manufacturer's specification (BioSource Intl., Camarillo, Calif.).
(§2) The levels of IL-16 and RANTES were then assessed with specific ELISAs. The ELISA assay for IL-16 is performed essentially as discussed in Sciaky D., Brazer, W., Center, D. M., Cruikshank, W. W. and Smith, T. J.: Cultured human fibroblasts express constitutive IL-16 mRNA: Cytokine induction of active IL-16 protein synthesis through a caspase-3-dependent mechanism. J. Immunol. 164(7):3806-14, 2000). An ELISA (BioSource) for RANTES was performed according to the manufacturer's instructions.

[5] = tested on: RANTES; assay: RANTES ELISA of medium from treated fibroblasts, GD donors; type: cell-based, human; conditions: TAO orbital fibroblasts; IGF-1 10 nM, TSH high concentrations
From the text: as §1, §2

[6] = tested on: orbital fibroblasts; assay: IL-6 and IL-8 synthesis in orbital fibroblasts on CD40 ligation; type: cell-based, human; conditions: orbital fibroblasts treated with rCD154
From the text: These include IL-6 and IL-8, two important molecules critical to the activation and trafficking of bone marrow derived cells to sites of inflammation and which have been implicated in Graves' disease. […] Nuclear translocation of NF-κB is provoked by CD40 ligation and inhibiting the activation of this transcriptional factor by stabilizing the NF-κB/IκB complex can block the induction of both IL-6 and IL-8.

Molecule: COc1cccc(-c2cc(=O)c3ccccc3o2)c1N [PD098059]
- effect on IL-16 and RANTES expression [1]: inhibition of expression

Molecule: C[S+]([O-])c1ccc(-c2nc(-c3ccncc3)c(-c3ccc(F)cc3)[nH]2)cc1 (stereo not shown) [SB203580]
- effect on IL-16 and RANTES expression [1]: inhibition of expression

Molecule: CS(=O)(=O)c1ccc(-n2nc(C(F)(F)F)cc2-c2ccc(F)cc2)cc1 [SC58125]
- effect on up-regulation of PGE2 synthesis [2]: blockage

Molecule: CN(CCOc1ccc(CC2SC(=O)NC2=O)cc1)c1ccccn1 (stereo not shown) [rosiglitazone]
- cells matured (differentiated) to adipocytes [3]: 44%

Molecule: IGF-1: authentic IGF-1, ligand of the IGF-1 receptor
- induction of IL-16 expression by the substance itself [4]: mimicked
- induction of RANTES expression by the substance itself [5]: mimicked

B1: rCD154: recombinant CD40 ligand, member of the TNF-α superfamily (protein, UniProt P29965 113-261, looked up)
CD40 ligand, soluble form: MQKGDQNPQIAAHVISEASSKTTSVLQWAEKGYYTMSNNLVTLENGKQLTVKRQGLYYIYAQVTFCSNREASSQAPFIASLCLKSPGRFERILLRAANTHSSAKPCGQQSIHLGGVFELQPGASVFVNVTDPSQVSHGTGFTSFGLLKL
- synthesis of both IL-6 and IL-8 [6]: dramatically increased
